{"source": "patent US12319954B2", "about": "“Morphinan compounds” (Concert Pharmaceuticals, Inc., priority 2007, dated 2025)", "key": {"[1]": {"experiment": "Metabolic stability in cynomolgus monkey liver microsomes", "conditions": "1 μM compound, 0.5 mg/mL microsomes; FIG. 1", "protocol": "(§1) The objectives of this study were to determine the metabolic stability of the test compounds in pooled human and […] liver microsomal incubations. Samples of the test compounds, exposed to pooled human or […] liver microsomes, were analyzed using HPLC-MS (or MS/MS) detection. For determining metabolic stability, multiple reaction monitoring (MRM) was used to measure the disappearance of the test compounds.\n(§2) Experimental Procedures: Human liver and Cynomolgus monkey liver microsomes were obtained from XenoTech, LLC (Lenexa, KS). The incubation mixtures were prepared as follows:\nIncubation of Test Compounds with Liver Microsomes: The reaction mixture, minus cofactors, was prepared. An aliquot of the reaction mixture (without cofactors) was incubated in a shaking water bath at 37° C. for 3 minutes. Another aliquot of the reaction mixture was prepared as the negative control. The test compound was added into both the reaction mixture and the negative control at a final concentration of 0.10, 0.25, or 1 μM. An aliquot of the reaction mixture was prepared as a blank control, by the addition of plain organic solvent (no test compound is added). The reaction was initiated by the addition of cofactors (not added to the negative controls), and then incubated in a shaking water bath at 37° C. […]\nAll samples were analyzed using LC-MS (or MS/MS). […]"}, "[2]": {"experiment": "Metabolic stability in human liver microsomes", "conditions": "for remained intact after 30 minutes of incubation: 0.25 μM compound, 2 mg/mL human liver microsomes, FIG. 2", "protocol": "as §1, §2\nIncubation of Test Compounds with Liver Microsomes: The reaction mixture, minus cofactors, was prepared. An aliquot of the reaction mixture (without cofactors) was incubated in a shaking water bath at 37° C. for 3 minutes. Another aliquot of the reaction mixture was prepared as the negative control. The test compound was added into both the reaction mixture and the negative control at a final concentration of 0.10, 0.25, or 1 μM. An aliquot of the reaction mixture was prepared as a blank control, by the addition of plain organic solvent (no test compound is added). The reaction was initiated by the addition of cofactors (not added to the negative controls), and then incubated in a shaking water bath at 37° C. Aliquots (200 μL) were withdrawn in triplicate at multiple time points and combined with 800 μL of ice-cold 50/50 acetonitrile/dH2O to terminate the reaction.\nAll samples were analyzed using LC-MS (or MS/MS). An LC-MRM-MS/MS method is used for metabolic stability. For testing in cynomolgus monkey liver microsomes, a final concentration of 1 μM of each compound and 0.5 mg/mL of microsomes were used."}, "[3]": {"experiment": "Plasma levels in cynomolgus monkeys after oral BID co-dosing of Compound 101 and dextromethorphan, with or without quinidine", "format": "in vivo", "experimental": "Blood Sample Collection—Blood sampling tOOK place on Day 6 after oral administration of the last dose (Dose 11). Blood (approximately 1 mL) was collected via femoral vein into tubes containing sodium heparin anticoagulant at 0.25, 0.5, 1, 1.5, 2, 3.5, 6 and 8 hours. The plasma was separated via centrifugation and stored in −20° C. before analysis.\nDilution using cynomolgus monkey plasma blank were applied if the sample concentration was over the ULOQ of calibration standard curve. The data acquisition and control system was created using Analyst 1.4 software from ABI Inc."}, "[4]": {"conditions": "monkeys, FIG. 6", "protocol": "OBJECTIVE—The objective of this study was to collect plasma samples from Cynomolgus Monkeys at various time points following oral administration of test articles in combination. The samples were used for the determination of plasma drug levels by LC/MS/MS for estimating pharmacokinetic parameters. This study was conducted in accordance with Shanghai Medicilon Inc. Standard Operating Procedures (SOPs). The Sponsor provided the test compounds and internal standard compound.\nEXPERIMENTAL DESIGN—Four Cynomolgus Monkeys were used in this study.\nThe combination dose was prepared by mixing both by 1:1 to yield a concentration of 1 mg/mL for each compound. […] Quinidine was prepared in DMI:EtOH:PG:water (10:15:35:40, v/v/v/v) at 3 mg/mL and dosed separately. The doses were given BID orally with an interval of 12 hours. […] Dosing volume of Quinidine was determined based on the dose each animal was getting. Dose volumes for each test animal was determined based on individual body weight. Body weights were taken on each day of dose administration and were be recorded.\nUrine Sample Collection—Urine samples in between two doses on Day 5 (for 12 hours between doses 9 and 10) were collected in a plate and quantified by volume. After collection, the urine samples were be stored in −20° C. and then shipped back to client. […]"}, "[5]": {"target": "T1, Human CYP2D6+P450 Reductase SUPERSOMES (Homo sapiens, UniProt P10635)", "T1 construct": "purchased GenTest (Woburn, MA, USA); host or cells: insect cells (inferred from the negative control, insect cell microsomes)", "T1 sequence (P10635 whole entry)": "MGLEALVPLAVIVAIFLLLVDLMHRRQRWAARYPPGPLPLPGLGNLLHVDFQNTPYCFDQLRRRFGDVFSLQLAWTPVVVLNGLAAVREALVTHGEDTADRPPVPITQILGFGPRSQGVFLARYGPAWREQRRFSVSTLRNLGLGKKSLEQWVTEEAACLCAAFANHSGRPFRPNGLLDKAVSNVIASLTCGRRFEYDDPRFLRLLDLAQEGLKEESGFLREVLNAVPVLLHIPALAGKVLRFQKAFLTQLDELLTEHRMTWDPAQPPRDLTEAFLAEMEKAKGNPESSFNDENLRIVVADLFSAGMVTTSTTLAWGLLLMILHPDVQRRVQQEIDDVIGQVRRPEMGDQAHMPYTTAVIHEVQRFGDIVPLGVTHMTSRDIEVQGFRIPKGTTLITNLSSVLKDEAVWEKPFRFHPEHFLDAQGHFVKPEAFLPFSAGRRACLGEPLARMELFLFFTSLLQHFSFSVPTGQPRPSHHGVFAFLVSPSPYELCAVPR", "experiment": "Metabolic stability in CYP2D6 SUPERSOMES", "format": "in vitro ADME", "conditions": "0.1 μM compound, 20 minutes", "protocol": "Human CYP2D6+P450 Reductase SUPERSOMES™ were purchased from GenTest (Woburn, MA, USA). […] Aliquots (50 μL) were removed from each sample and placed in wells of a multi-well plate at 0, 2, 5, 7, 12, 20, and 30 minutes and to each was added 50 μL of ice cold acetonitrile with 3 μM haloperidol as an internal standard to stop the reaction.\nPlates containing the removed aliquots were then placed in −20° C. freezer for 15 minutes to cool. After cooling, 100 μL of deionized water was added to all wells in the plate. Plates were then spun in the centrifuge for 10 minutes at 3000 rpm. A portion of the supernatant (100 μL) was then removed, placed in a new plate and analyzed using Mass Spectrometry."}}, "data": [{"compound": "[2H]C([2H])([2H])Oc1ccc2c(c1)[C@]13CCCC[C@@H]1[C@H](C2)N(C([2H])([2H])[2H])CC3", "note": "[Compound 101, (+)-3-d3-methoxy-17-d3-methyl-(9α, 13α, 14α)-morphinan]", "values": [{"measurement": "stability in monkey liver microsomes compared with dextromethorphan", "setting": "[1]", "value": "greater stability than dextromethorphan"}, {"measurement": "remained intact after 30 minutes of incubation", "setting": "[2]", "value": "approximately 45%"}, {"measurement": "plasma levels compared to dextromethorphan", "setting": "[3]; co administered with the same amount of quinidine, FIG. 5", "value": "greater than dextromethorphan plasma levels"}, {"measurement": "metabolism to deuterated dextrorphan isotopologues (plasma)", "setting": "[3]; no quinidine, FIG. 4", "value": "reduced relative to metabolism of dextromethorphan to dextrorphan"}, {"measurement": "urine level of parent compound compared to dextromethorphan", "setting": "[4]; at the same quinidine concentration", "value": "less Compound 101 in the urine than dextromethorphan"}]}, {"compound": "COc1ccc2c(c1)[C@]13CCCC[C@@H]1[C@H](C2)N(C)CC3", "note": "[Dextromethorphan, (+)-3-methoxy-17-methyl-(9α, 13α, 14α)-morphinan, reference compound]", "values": [{"measurement": "remained intact after 30 minutes of incubation", "setting": "[2]", "value": "about 33%"}, {"measurement": "intact compound at the 20 minute time point with 2D6 Supersomes", "setting": "[5]", "value": "no intact dextromethorphan could be detected"}, {"measurement": "urine levels, effect of quinidine concentration", "setting": "[4]", "value": "affected by increasing quinidine concentration"}]}, {"compound": "(+)-3-d3-methoxy-17-methyl-(9α, 13α, 14α)-morphinan [Compound 100]", "values": [{"measurement": "stability in monkey liver microsomes compared with dextromethorphan", "setting": "[1]", "value": "greater stability than dextromethorphan"}, {"measurement": "remained intact after 30 minutes of incubation", "setting": "[2]", "value": "~42", "unit": "%"}, {"measurement": "remained intact after a 30 minute exposure", "setting": "[2]; 0.5 mg/mL human liver microsomes", "value": "~71", "unit": "%"}]}]}
